Laboratory results taken from paper PMC12775434, “Ultra-large virtual screening unveils potent agonists of the neuromodulatory orphan receptor GPR139” (Nature Communications, 2025).
Values joined by “and” are separate entries in the source; they are usually repeats but may differ in a detail not shown here. Equal entries are not always repeated.

Key:
GPR139 [1] = target: T1, GPR139 (Homo sapiens, UniProt Q6DWJ6); assay: Ca2+ mobilization assay, antagonist mode (EC80 800 nM Lundbeck Cmp 1a after 20 min preincubation), GPR139-CHOk1; format: cell-based; conditions: individual replicates
T1 sequence (Q6DWJ6 1-353): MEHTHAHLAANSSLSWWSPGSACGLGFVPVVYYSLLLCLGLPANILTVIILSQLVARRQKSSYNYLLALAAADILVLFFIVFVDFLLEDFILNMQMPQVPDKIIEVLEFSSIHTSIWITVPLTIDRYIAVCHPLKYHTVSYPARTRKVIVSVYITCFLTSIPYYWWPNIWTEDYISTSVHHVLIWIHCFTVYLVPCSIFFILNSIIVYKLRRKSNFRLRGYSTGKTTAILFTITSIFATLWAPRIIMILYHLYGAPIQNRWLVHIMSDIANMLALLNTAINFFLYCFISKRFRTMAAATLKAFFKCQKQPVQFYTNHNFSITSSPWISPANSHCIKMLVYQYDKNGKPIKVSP
Procedure, shortened: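 Fluo-4-loaded GPR139-CHOk1 cells in HEPES-buffered HBSS (pH 7.4, 2.5 mM probenecid) given test compounds at 10 µM, then after 20 min challenged with 800 nM Lundbeck Cmp 1a (EC80). Calcium fluorescence read at 37 °C, 485/525 nm.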

GPR139 [2] = target: T1, GPR139; assay: Inositol monophosphate (IP1) accumulation assay, GPR139-CHOk1; format: cell-based

## COc1cc(OC)cc(C(=O)NNC(=O)Nc2cccc3ccccc23)c1 [Lundbeck Cmp 1a, reference compound]
GPR139 [1]; 10 µM compound + 800 nM Cmp 1a
  Ca2+ signal (% of Cmp 1a): 6.33 % of Cmp 1a and 14 % of Cmp 1a and 11 % of Cmp 1a
GPR139 [1]; Vehicle + 800 nM Cmp 1a
  Ca2+ signal (% of Cmp 1a): 92 % of Cmp 1a and 84 % of Cmp 1a and 83 % of Cmp 1a
GPR139 [1]; Vehicle + 10 µM Cmp 1a
  Ca2+ signal (% of Cmp 1a): 100 % of Cmp 1a
GPR139 [2]; Supplementary Table 2, mean ± SEM, read-out: pEC50 IP1 (converted)
  EC50: 501 nM
GPR139 [2]; log [Compound] M -4.5, replicate experiments
  IP1 response (% of Cmp 1a): 68 % of Cmp 1a and 118 % of Cmp 1a and 94 % of Cmp 1a and 117 % of Cmp 1a and 98 % of Cmp 1a and 86 % of Cmp 1a and 109 % of Cmp 1a
GPR139 [2]; log [Compound] M -5.0, replicate experiments
  IP1 response (% of Cmp 1a): 78 % of Cmp 1a and 115 % of Cmp 1a and 96 % of Cmp 1a and 112 % of Cmp 1a and 133 % of Cmp 1a and 94 % of Cmp 1a and 86 % of Cmp 1a and 118 % of Cmp 1a
GPR139 [2]; log [Compound] M -5.5, replicate experiments
  IP1 response (% of Cmp 1a): 88 % of Cmp 1a and 100 % of Cmp 1a and 81 % of Cmp 1a and 120 % of Cmp 1a and 61 % of Cmp 1a and 70 % of Cmp 1a and 104 % of Cmp 1a
GPR139 [2]; log [Compound] M -6.0, replicate experiments
  IP1 response (% of Cmp 1a): 58 % of Cmp 1a and 80 % of Cmp 1a and 57 % of Cmp 1a and 63 % of Cmp 1a and 85 % of Cmp 1a and 49 % of Cmp 1a and 68 % of Cmp 1a and 66 % of Cmp 1a
GPR139 [2]; log [Compound] M -6.5, replicate experiments
  IP1 response (% of Cmp 1a): 29 % of Cmp 1a and 32 % of Cmp 1a and 26 % of Cmp 1a and 50 % of Cmp 1a and 44 % of Cmp 1a and 31 % of Cmp 1a and 21 % of Cmp 1a
GPR139 [2]; log [Compound] M -7.0, replicate experiments
  IP1 response (% of Cmp 1a): 7.48 % of Cmp 1a and 13 % of Cmp 1a and 2.79 % of Cmp 1a and 11 % of Cmp 1a and 21 % of Cmp 1a and 9 % of Cmp 1a and 3.75 % of Cmp 1a and 17 % of Cmp 1a
GPR139 [2]; log [Compound] M -7.5, replicate experiments
  IP1 response (% of Cmp 1a): 6 % of Cmp 1a and 4.58 % of Cmp 1a and 1.86 % of Cmp 1a and 3 % of Cmp 1a and 16 % of Cmp 1a and 1.22 % of Cmp 1a and 0.482 % of Cmp 1a and 2.32 % of Cmp 1a
GPR139 [2]; log [Compound] M -8.0, replicate experiments
  IP1 response (% of Cmp 1a): 1.17 % of Cmp 1a and 1.86 % of Cmp 1a and 0.194 % of Cmp 1a and 1 % of Cmp 1a and 1.43 % of Cmp 1a and -8 % of Cmp 1a and -2.66 % of Cmp 1a and -4 % of Cmp 1a
GPR139 [2]; log [compound] M -4.5, individual replicates
  IP1 response (% of Cmp 1a): 98 % of Cmp 1a and 68 % of Cmp 1a and 86 % of Cmp 1a and 109 % of Cmp 1a
GPR139 [2]; log [compound] M -5.0, individual replicates
  IP1 response (% of Cmp 1a): 133 % of Cmp 1a and 94 % of Cmp 1a and 86 % of Cmp 1a and 118 % of Cmp 1a
GPR139 [2]; log [compound] M -5.5, individual replicates
  IP1 response (% of Cmp 1a): 120 % of Cmp 1a and 61 % of Cmp 1a and 70 % of Cmp 1a and 104 % of Cmp 1a
GPR139 [2]; log [compound] M -6.0, individual replicates
  IP1 response (% of Cmp 1a): 85 % of Cmp 1a and 49 % of Cmp 1a and 68 % of Cmp 1a and 66 % of Cmp 1a
GPR139 [2]; log [compound] M -6.5, individual replicates
  IP1 response (% of Cmp 1a): 50 % of Cmp 1a and 44 % of Cmp 1a and 31 % of Cmp 1a and 21 % of Cmp 1a
GPR139 [2]; log [compound] M -7.0, individual replicates
  IP1 response (% of Cmp 1a): 21 % of Cmp 1a and 9 % of Cmp 1a and 3.75 % of Cmp 1a and 17 % of Cmp 1a
GPR139 [2]; log [compound] M -7.5, individual replicates
  IP1 response (% of Cmp 1a): 16 % of Cmp 1a and 1.22 % of Cmp 1a and 0.482 % of Cmp 1a and 2.32 % of Cmp 1a
GPR139 [2]; log [compound] M -8.0, individual replicates
  IP1 response (% of Cmp 1a): 1.43 % of Cmp 1a and -8 % of Cmp 1a and -2.66 % of Cmp 1a and -4 % of Cmp 1a
GPR139 [2]; read-out: Emax (%) IP1
  Emax: 101 ± 12%
